Reference: patent publication USRE42700E1, “Induction of apoptosis in cancer cells” (Sanford-Burnham Medical Research Institute, priority 2001, dated 2011)

Key:
RXRα = RXRα (Homo sapiens, UniProt P19793); assay: activation of RXRα on the (TREpal)2-tk-CAT reporter construct; format: cell-based; settings: 1.0 μM
[1] = test system: human acute megakaryocytic leukemia cell line M07e; assay: M07e apoptosis quantification; format: cell-based
Method: Apoptosis Quantification: Staining of apoptotic cells was performed as described by Gavreli, Y., et al., (J. Cell. Biol. 119: 493-501 (1992)) and Whitacre, C. M., et al., (Cancer Res. 55: 3697-3701 (1995)). After 3-Cl-AHPC treatment, cells were harvested, washed with PBS and resuspended at 1×10^6 cells/ml. Cell suspensions (50 μl) were stained with […] of acridine orange solution ([…]) in PBS in the dark. Cells displaying fragmented DNA were detected using a fluorescent microscope. Apoptotic cells were also detected using a kit. Cells that incorporated fluorescein labeled deoxyuridine triphosphate were detected using flow cytometry.

[2] = test system: leukemic blasts from patients (AML or CML in blast crisis); assay: proliferation of patient leukemic blasts; format: cell-based; settings: Homo sapiens
Method: Cell Growth: IL-3-transfected M07e cells have been described by Thacker, D. J., et al., Leukemia 8: 871-877 (1994). Cells were grown in RPMI supplemented with 5 percent heat-inactivated fetal bovine serum (FBS) and 25 μg/ml gentamycin in a […], 5% CO2, and 100% humidity environment. Leukemic cells were obtained from patients who met the criteria for the diagnosis of AML or CML in blast crisis (see Table 1). Studies were approved by the Wayne State University Institutional Review Board. Informed consent was obtained from all patients. Leukemic blasts from patients were isolated using Ficoll hypaque. Cells at the interface between plasma and red blood cells were diluted with sterile PBS, then layered over Ficoll hypaque (1.077 density), and the leukemic cells collected at the interface. The sample to be studied represented greater than 90% blasts. The patient leukemia samples were grown in RPMI medium supplemented with 10% FBS, gentamycin (25 μg/ml), IL-3 (20 ng/ml), SCF (25 ng/ml), GM-CSF (20 ng/ml) and G-CSF (20 ng/ml). Cell growth was assessed using a cell proliferation kit.

[3] = test system: leukemic blasts from patient 1; assay: leukemia colony formation in methylcellulose; format: cell-based, human; settings: 14 days
Method: Leukemia Colony Formation: Leukemic blasts (1×10^5 cells) from patient 1 (Table 1) were isolated as described above and cultured in methylcellulose supplemented with 20% FCS, SCF, and IL-3, GM-CSF and G-CSF at a final concentration of 10 ng per ml, cells were incubated for 14 days at 37° C. in a 5% CO2 humidified atmosphere in the presence and absence of 3-Cl-AHPC after which time colonies (>40 cells) were counted.

[4] = CFU-GM colony formation, human bone marrow; format: cell-based; settings: bone marrow CFU-GM progenitor cells
Method: CFU-GM Colony Formation: The CFU-GM colony assay was performed as described in Parchment et al., (J. Natl. Cancer Inst. 86: 273-280 (1994)).

Bcl-XL in leukemic cells = assay: Bcl-XL cleavage by Western blot; format: cell-based, human; settings: 1 μM
Method: Western Blots: Western blots were performed according to the protocol of Sheikh, M. S., et al., (Oncogene, 9: 3407-3415 (1994)). Logarithmically growing cells were treated with 3-Cl-AHPC for various times and cells were harvested and lysed in Laemmli lysis buffer (0.5 M Tris-HCl, pH 6.8, 0.002M EDTA, 10% glycerol, 10% sodium dodecyl sulfate (SDS), and 5% β-mercaptoethanol). Protein lysates (50 μg/lane) were electrophoresed on 12% SDS-polyacrylamide gels and transferred to nitrocellulose membranes. Membranes were blocked with 5% nonfat dried milk in PBS/0.5% Tween 20 and then incubated with the appropriate antibodies. Horseradish peroxidase-conjugated rabbit anti-mouse IgG was used as the secondary antibody, and bands were developed using the Amersham ECL non-radioactive method.

Chain of RXRα (P19793 whole entry): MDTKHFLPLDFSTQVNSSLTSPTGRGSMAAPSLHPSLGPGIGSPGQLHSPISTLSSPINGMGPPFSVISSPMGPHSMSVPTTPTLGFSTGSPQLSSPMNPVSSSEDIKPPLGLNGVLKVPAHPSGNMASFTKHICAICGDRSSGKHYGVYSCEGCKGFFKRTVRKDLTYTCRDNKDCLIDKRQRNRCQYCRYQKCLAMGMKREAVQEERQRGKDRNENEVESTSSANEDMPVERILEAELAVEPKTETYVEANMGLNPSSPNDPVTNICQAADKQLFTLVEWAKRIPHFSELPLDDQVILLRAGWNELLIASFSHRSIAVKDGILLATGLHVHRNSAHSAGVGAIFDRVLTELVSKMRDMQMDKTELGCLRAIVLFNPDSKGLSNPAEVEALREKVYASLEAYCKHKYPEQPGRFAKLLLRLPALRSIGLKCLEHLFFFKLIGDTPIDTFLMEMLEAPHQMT

O=C(O)/C=C/c1ccc(-c2ccc(O)c(C34CC5CC(CC(C5)C3)C4)c2)c(Cl)c1 [Example 3-Cl-AHPC, (E)-4-[3-(1-Adamantyl)-4-hydroxyphenyl]-3-chlorocinnamic acid]
activation of RXRα (RXRα): does not activate
apoptosis ([1]; 0.2 μM): no significant increase in apoptosis
apoptosis ([1]; 0.5 and 1.0 μM): onset of apoptosis
concentration required to induce apoptosis ([1]; M07e cells): 0.5 µM
inhibition at 1 µM [2]: 60 to 90%
concentration for complete inhibition of leukemia colony formation [3]: 600 nM
IC50 ([3]; Homo sapiens, 336 h, patient 1, read-out: inhibition of leukemia colony formation, ED50 (IC50)): 375 nM
IC90 [4]: > 15000 nM
Bcl-XL cleavage (Bcl-XL in leukemic cells): cleavage of Bcl-XL to a 18-kD product
